# Results reported in patent publication US4794114A, “Inhibition of interleukin-1 production by monocytes and/or macrophages” (SmithKline Beckman Corporation, priority 1987, dated 1988).
# Where two headings read alike, the source gives them in different places.
# How the values were obtained:
# splenic adherent cells = test: adjuvant-induced arthritis in the rat: % splenic adherent cells; type: in vivo; details: mg/kg: Compound 1 60, indomethacin 2.0, prednisolone 10, methotrexate 0.3, D-penicillamine 50
# Description: (§1) Adjuvant-induced arthritis in the rat is a model of systemic inflammation with characteristics similar to rheumatoid arthritis in man. […] This model was employed to assess the effect of Compound 1 in vivo on this elevated IL-1 production. Briefly, rats were injected on day 0 with Freund's complete adjuvant in the right hind leg. Drugs were prepared as a suspension in tragacanth and administered daily per os either prophylactically (days 1 to 16) or therapeutically in a short-term modality (days 14 to 16). In all cases, final administration of drug occurred at 3 hours prior to sacrifice. Spleens were removed from these rats and the adherent cells were assessed for their ability to produce IL-1 in vitro in response to stimulation by LPS.
# (§2) PROPHYLACTIC TREATMENT: Drugs were administered daily p.o. as a suspensio
# (§3) in tragacanth from day 1 to day 16. Final dose given 3 hrs before
# (§4) TREATMENT: Drugs were administered daily p.o. as above from
# (§5) day 14 to day 16. Final dose given 3 hrs before sacrifice.
# (§6) ***P < 0.01 Indomethacin 2.0 mg/kg
# (§7) **P < 0.05 Compound 1 60 mg/kg
# (§8) *P < 0.10 Prednisolone 10 mg/kg
# (§9) D-Penicillamine 50 mg/kg
# PGE2 = test: in vitro prostaglandin (PGE2) synthesis by LPS-stimulated human monocytes, RIA; type: cell-based
# Description: (§10) Bacterial lipopolysaccharide (LPS) was used to induce IL-1 production by human peripheral blood monocytes. IL-1 activity was measured by its ability to stimulate a Interleukin 2 (IL-2) producing cell line (EL-4) to secrete IL-2, in concert with A23187 ionophore, according to the method of Simon et al., J. Immunol. Methods, 84, 85, (1985). Human peripheral blood monocytes were isolated and purified from either fresh blood preparations from volunteer donors, or from blood Bank buffy coats, according to the procedure of Colotta et al., J. Immunol., 132, 936 (1984). 1×10^6 of such monocytes are plated in 24-well plates at a concentration of 2 million/ml per well. The cells were allowed to adhere for 2 hours, after which time non-adherent cells were removed by gentle washing. Test compounds were then added to the cells for 1 hour (hr) before the addition of lipopolysaccharide (10 ng/ml unless otherwise noted), and the cultures were incubated at 37° C. for an additional 24 hours. At the end of the incubation period, culture supernatants were removed and clarified of cells and all debris. Culture supernatants were immediately assayed for IL-1 biological activity as well as prostaglandin and/or leukotriene concentrations by radioimmunoassay.
# ^(c) PGE2 was assayed using an RIA kit.
# A375 melanoma cells = test: tumoricidal activity of LPS-treated human monocytes in the kill of A375 melanoma cells; type: cell-based; details: 10^-5 to 10^-8 M
# [1] = test system: IL-1 production by human monocytes; test: in vitro IL-1 production by LPS-stimulated human peripheral blood monocytes (EL-4 readout); type: cell-based; details: for inhibition at 1 µM: 10^-6 M; for inhibition at 0.1 µM: 10^-7 M
# Description: The effects of antiinflammatory/antiarthritic drugs of different classes, including Compound 1 on the in vitro production of IL-1 by human monocytes was examined.
# as §10
# ^(a) All compounds, except chloroquine, were dissolved in absolute
# ethanol at 10^-2 M, which was subsequently diluted further in tissue
# assay system at doses tested. Furthermore, test samples were dialyzed
# prior to testing in the IL1 assay.
# In order to elucidate the mechanism by which Compound 1 mediates its anti-inflammatory activity, the ability of this compound and two closely related analog metabolites, (i.e., the analogs of Compound 1 wherein X is S(0)n and n is 1 or 2) to inhibit human IL-1 production in vitro was evaluated according to the method of Example 1. Briefly, 1×10^6 human peripheral blood monocytes were plated in 24-well plates and allowed to adhere for 1 hr at 37° C. The above compounds were added to a final concentration of 10^-5 M to 10^-8 M. The monocytes were stimulated to produce IL-1 with 1 ng/ml LPS after a 1 hr pretreatment of the cells with the respective compounds.
# The inhibitory effect of additional compounds of Formula (I) on the in vitro production of IL-1 production of IL-1 by human monocytes was determined according to the procedure of Examples 1 and 2.
# alpha interferon = alpha interferon (other inducible proteins) production; type: cell-based
# [2] = test system: IL-1 production by splenic adherent cells; test: adjuvant-induced arthritis in the rat: IL-1 production by LPS-stimulated splenic adherent cells; type: in vivo; details: for IL-1 Production (splenic adherent cells), % normal control: mg/kg: Compound 1 60, indomethacin 2.0, prednisolone 10, methotrexate 0.3, D-penicillamine 50
# Description: as §1, §2, §3, §4, §5, §6, §7, §8, §9
# monocytes = test: in vitro; type: cell-based, human
# Description: as §10
# ^(b) At doses at or above 10^-5 M, this compound exerted some
# EL-4/CTLL assay = test: direct effect on IL-1 standard in EL-4/CTLL readout assay; type: cell-based
# Description: as §10
# Inhibition of IL-1 production by Compound 1 is not due to a carryover effect of the drug on the cells sed in the IL-1 readout assay. […]
# [3] = test system: human peripheral blood lymphocytes; test: lectin-stimulated mitogenesis of human peripheral blood lymphocytes; type: cell-based
# [4] = test system: adjuvant-induced arthritis in the rat; test: adjuvant-induced arthritis in the rat: right leg paw edema; type: in vivo; details: mg/kg: Compound 1 60, indomethacin 2.0, prednisolone 10, methotrexate 0.3, D-penicillamine 50
# Description: as §1, §2, §3, §4, §5, §6, §7, §8, §9
# IL-2 = IL-2 production or response; type: cell-based
# [5] = test system: endotoxin shock in C57B1/6 mice; type: in vivo, mouse; details: mouse, in vivo
# Description: Mice are very resistant to the lethal effects of bacterial lipopolysaccharides (LPS). D-Galactosamine (D-GALN) induces a high degree of sensitization to the lethal effects of LPS in mice and other experimental animals. [See, Galanos et al., Proc. Natl. Acad Sci. USA., 76, 5939 (1979)]. In mice, depending on the strain and age, the sensitivity to endotoxin can be increased many thousand-fold.
# A number of preliminary experiments were carried out to establish this model of lethal endotoxin shock.
# [6] = prophylactic, daily p.o. days 1-16
# [7] = therapeutic, daily p.o. days 14-16
# [8] = Homo sapiens, Monocyte, wide range of LPS, read-out: inhibition of IL-1 production
# [9] = Homo sapiens, Monocyte, read-out: % Inhibition IL-1
smiles,measurement,setting,value
Fc1ccc(-c2nc3n(c2-c2ccncc2)CCS3)cc1 [Compound 1],"% Adherent Cells (splenic), % normal control",splenic adherent cells; [6],98 ± 29 % normal control
same,"% Adherent Cells (splenic), % normal control",splenic adherent cells; [7],216 ± 137 % normal control
same,inhibition at 10 µM,"PGE2; Homo sapiens, Monocyte, 10^-5 M, read-out: % Inhibition PGE2",99%
same,inhibition at 1 µM,"PGE2; Homo sapiens, Monocyte, 10^-6 M, read-out: % Inhibition PGE2",94%
same,inhibition at 0.1 µM,"PGE2; Homo sapiens, Monocyte, 10^-7 M, read-out: % Inhibition PGE2",79%
same,inhibition of prostaglandin synthesis,PGE2; submicromolar range (10^-7 M),greater than 80%
same,effect on monocyte tumoricidal activity,A375 melanoma cells,did not effect that biological activity
same,dose dependence of IL-1 production inhibition,[1],dose dependent
same,inhibition of IL-1 production,[1],inhibits IL-1 production
same,relative potency against the two analogs,[1]; 1 ng/ml LPS,slightly more potent than the two analogs tested
same,IC50,"[1]; Homo sapiens, Monocyte, 1 ng/ml LPS, 1 hr pretreatment",250 nM
same,inhibition at 10 µM,"[1]; Homo sapiens, Monocyte, 10^-5 M, read-out: % Inhibition IL-1",99%
same,inhibition at 1 µM,[1]; [8],~80%
same,inhibition at 1 µM,"[1]; Homo sapiens, Monocyte, Table 3, read-out: % Inhibition @ 10^-6 M",70%
same,inhibition at 1 µM,[1]; [9],96%
same,inhibition at 0.1 µM,[1]; [8],~40%
same,inhibition at 0.1 µM,[1]; [9],88%
same,inhibition of IL-1 production,[1]; submicromolar range (10^-7 M),greater than 80%
same,inhibition of IL-1 production induced by a variety of activators,[1]; variety of activators,inhibits IL-1 production induced by a variety of activators
same,effect on other inducible proteins such as alpha interferon,alpha interferon,not effected
same,decrease in IL-1 production,[2]; prophylactic administration,more dramatic decrease in IL-1 production than indomethacin which resulted in nearly complete normalization of this parameter
same,"IL-1 Production (splenic adherent cells), % normal control",[2]; [6],139 ± 28 % normal control
same,"IL-1 Production (splenic adherent cells), % normal control",[2]; [7],392 ± 129 % normal control
same,effect in adjuvant arthritic rats,"[2]; therapeutic, short-term treatment",no effect
same,nonspecific toxic effect on other functions of activated monocytes,monocytes,does not exert a nonspecific toxic effect on other functions of activated monocytes
same,effect on the IL-1 assay system,EL-4/CTLL assay; 10^-5 or higher,had an effect on the assay system
same,direct effect on the IL-1 assay,EL-4/CTLL assay; lower doses / doses tested,no direct effect on the IL-1 assay
same,inhibition of lectin-stimulated mitogenesis,[3],does not inhibit lectin-stimulated mitogenesis
same,"Right leg paw edema, % normal control",[4]; [6],134 ± 9 % normal control
same,"Right leg paw edema, % normal control",[4]; [7],159 ± 7 % normal control
same,inhibition of IL-2 production,IL-2; IL-2 production,does not inhibit either IL-2 production or response
same,inhibition of IL-2 response,IL-2; IL-2 response,does not inhibit either IL-2 production or response
same,protection from lethal effects of LPS/GALN,[5],protected the animals from the lethal effects of LPS/GALN
same,immunosuppressive effect,immunosuppressive effect,not immunosuppressive
